Measured values taken from the NIST ThermoML archive (doi:10.1021/je7001094).
± gives the expanded uncertainty stated by the source.

Columns and labels:
[1] = Crystal; DTA
[2] = Molar enthalpy of transition or fusion; details: Crystal; DSC
[3] = molar heat capacity at constant pressure; details: 323.1 K; 101.33 kPa; Crystal; Small sample (50 mg) DSC

| Compound | Normal melting temperature [1] [°C] | Molar enthalpy of transition or fusion [2] [kcal/mol] | molar heat capacity at constant pressure [3] [J/K/mol] |
| --- | --- | --- | --- |
| COc1ccc([C@@H]2CC(=O)c3c(O)cc(O)cc3O2)cc1O | 226.07 ± 2 | 8.58 ± 0.191 | 906 ± 530 |
| O=C1CC(c2ccc(O)cc2)Oc2cc(O)cc(O)c21 (stereo not drawn) [4',5,7-trihydroxyflavanone] | 250.00 ± 1.2 | 9.51 ± 0.239 | 259.7 ± 32 |
| O=c1c(O[C@@H]2O[C@H]([C@H](O)CO)[C@H](O)[C@H]2O)c(-c2ccc(O)c(O)c2)oc2cc(O)cc(O)c12 [isoquercitrin] | 198.00 ± 3 | 11.9 ± 0.502 | 947.9 ± 30 |
| C[C@@H]1O[C@@H](OC[C@H]2O[C@@H](Oc3c(-c4ccc(O)c(O)c4)oc4cc(O)cc(O)c4c3=O)[C@H](O)[C@@H](O)[C@@H]2O)[C@H](O)[C@H](O)[C@H]1O [rutin] | 177.00 ± 3 | 19.7 ± 0.406 | 915 ± 160 |

The next lines start with the values.

| Normal melting temperature [1] [°C] | Molar enthalpy of transition or fusion [2] [kcal/mol] | molar heat capacity at constant pressure [3] [J/K/mol] | Compound |
| --- | --- | --- | --- |
| 285.00 ± 2.2 | 9.37 ± 0.215 | 200.6 ± 110 | O=c1cc(-c2ccccc2)oc2cc(O)cc(O)c12 [5,7-dihydroxyflavone] |
| 322.00 ± 1.4 | 9.92 ± 0.335 | 585.9 ± 170 | O=c1c(O)c(-c2ccc(O)c(O)c2)oc2cc(O)cc(O)c12 [quercetin] |
